Patent US20250339494A1, “COMPOUNDS INDUCING PRODUCTION OF PROTEINS BY IMMUNE CELLS” (UNIVERSITE PARIS CITE, priority 2022, published 2025)

System: Human B cells
Assay: IL-10 induction in human B cells cultivated 2 days with anti-IgM plus CpG; IL-10 measured in cell culture supernatants
Assay type: cell-based
Settings: 2 consecutive days, molecule at 0.25 μM final concentration, culture supernatant
Method: Human B cells isolated magnetically through negative selection (B Cell Isolation Kit II, human, Miltenyi ref: 130-091-151) were cultivated for 2 consecutive days in the presence of anti-IgM plus CpG in the presence of the indicated molecule (see table 3) at 0.25 μM final concentration. IL-10 was measured in cell culture supernatants.
Human B cells isolated magnetically through negative selection (B Cell Isolation Kit II, human, Miltenyi ref: 130-091-151) were cultivated for 2 consecutive days in the presence of anti-IgM plus CpG in the presence of DMSO (as control) or in the presence of the indicated molecule (as identified in the attached excel file) at 0.25 microM final concentration. IL-10 was measured in cell culture supernatants. NS: non stimulated B cell culture condition.

**Q.** Which “IL-10 Induction Mean (pg/mL) human” value does the source give for “2-methoxy-N-(1-methyl-2-(pyridin-3-yl)-1H-imidazo[4,5-b]pyridin-5-yl)benzamide + 2-methoxy-N-(3-methyl-2-(pyridin-3-yl)-3H-imidazo[4,5-b]pyridin-5-yl)benzamide [Compound 131]” here?
**A.** 1.85 pg/mL
